The source of these data is patent publication US8637510B2, “Morpholinothiazoles as alpha 7 positive allosteric modulators” (Janssen Pharmaceutica NV, priority 2009, dated 2014).

The target of series [1] is T1, human alpha 7-wt nAChR-expressing GH4C1 cells (Homo sapiens, UniProt P36544).
T1 construct: expressed in transfected cells
Description: Patch-clamp current recording (whole-cell voltage-clamp, PAM type classification). The format is cell-based. Also noted: key: Type 0 compounds minimally change the effect size of the current elicited by 1 mM choline.; Type 1 compounds enhance the effect size of the current elicited by 1 mM choline but minimally alter the kinetics of the receptor.; Type 2 compounds enhance the effect size of the current elicited by 1 mM choline while reducing the rate and/or the extent of desensitization.; Type 3 compounds enhance the effect size of the current elicited by 1 mM choline. When tested at higher concentrations up to 10 μM they completely inhibit desensitization; Type 4 compounds allow for an initial desensitization of the receptor followed by a re-opening of the receptor during agonist application. The settings on record: 1 mM choline. The procedure:
The compounds of the present invention are classified as type 1-4, based on qualitative kinetic properties, as determined by whole-cell voltage-clamp recordings. This classification is based on the effect of an alpha 7 PAM compound, as described hereinbefore, on the signal elicited by an agonist application. In particular, said agonist is choline at a concentration of 1 mM. In a preferred experimental setting, said alpha 7 PAM compound and choline are simultaneously applied to the cell, as described hereinafter. Desensitization is defined as the closure of the receptor upon activation during the application of the agonist in whole-cell voltage-clamp electrophysiology measurements seen as the reduction of the […] current after initial activation by the agonist.
The definition of the PAM types 1-4 is described hereinafter: • Type 0 compounds minimally change the effect size of the current elicited by 1 mM choline. • Type 1 compounds enhance the effect size of the current elicited by 1 mM choline but minimally alter the kinetics of the receptor. In particular, the rate and the extent of desensitization and of deactivation of the receptor elicited by the agonist is not affected. The compound-modulated response to 1 mM choline, therefore, is close to a linear scaling of the 1 mM choline response in absence of the alpha 7 PAM compound. • Type 2 compounds enhance the effect size of the current elicited by 1 mM choline while reducing the rate and/or the extent of desensitization. Deactivation of the receptor is generally unaffected. • Type 3 compounds enhance the effect size of the current elicited by 1 mM choline. […] Deactivation of the receptor may be slowed down • Type 4 compounds allow for an initial desensitization of the receptor followed by a re-opening of the receptor during agonist application. At low-potency concentrations of the alpha 7 PAM compound, the agonist-induced activation, which is followed by desensitization, can still be separated from the compound-induced re-opening as an initial inward current-maximum. At higher potency concentrations of the alpha 7 PAM compound, the re-opening occurs faster than the closure due to desensitization so that the initial current-maximum disappears.
A compound was considered to have interesting PAM-like activity when the potentiation of the peak current was at least 200% compared to the control choline response (=100%). Such compounds are classified as belonging to a particular PAM type in the Experimental Part. Compounds not meeting the condition are not classified as belonging to a particular PAM-type.
The compounds also have a potentiating effect on the response to choline when measured by whole-cell patch clamp electrophysiology in GH4C1 cells stably over-expressing the human wild-type alpha 7 receptor.
Patch-clamp recording from mammalian cells has provided a powerful means of assessing the function of membrane-bound proteins thought to be subunits of ligand-gated ion channels. Activation of such proteins by endogenous or exogenous ligands cause opening of a pore associated with the receptor through which ions flow down their electrochemical gradient. In the case of the human alpha 7-wt nAChR-expressing GH4C1 recombinant cell line the preferential permeability to calcium of this receptor means that calcium flows into the cell upon activation by ACh, choline and other nicotinic ligands giving rise to a calcium current. Since this receptor rapidly desensitizes in the presence of agonist it is important that an application system is used which is capable of very rapid switching of solutions (<100 ms) to prevent partial or full desensitisation of receptor responses coincident with the time of agonist application. Consequently, a second convenient technique to assess the enhancement of nicotinic efficacy is a patch-clamp recording from human alpha 7-wt nAChR-expressing GH4C1 cells coupled with a rapid-application system. […]
Background: The patch-clamp technique gives a direct electrical read-out from membranes.

Another series deals with T2, human alpha 7-wt nAChR (Homo sapiens, UniProt P36544).
T2 construct: expressed in transfected cells
Description: Ca2+ flux imaging (FDSS) (Protocol B). The format is cell-based. The settings on record: for Emax: read-out: a7-PAM-G_[33]_Eff_Curve_FI % Efficacy; for EC50: potentiation of 100 μM choline, compounds 0.01 μM to 30 μM, read-out: a7-PAM-G_[33]_pEC50 pEC50 (converted). A digest of the protocol: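 Fluo-4AM-loaded cells expressing human α7-wt nAChR, in HBSS with 10 mM HEPES, 5 mM CaCl2, 0.1% BSA, received compound (0.01–30 μM), typically 10 min before 100 μM choline, with calcium flux read in real time. Potentiation is relative to choline alone (100%); EC50 from sigmoidal curves.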

The mark [2] stands for this setting: efficacy of 100 μM choline defined as 100% in the absence of a PAM.

T2 sequence (P36544 23-502): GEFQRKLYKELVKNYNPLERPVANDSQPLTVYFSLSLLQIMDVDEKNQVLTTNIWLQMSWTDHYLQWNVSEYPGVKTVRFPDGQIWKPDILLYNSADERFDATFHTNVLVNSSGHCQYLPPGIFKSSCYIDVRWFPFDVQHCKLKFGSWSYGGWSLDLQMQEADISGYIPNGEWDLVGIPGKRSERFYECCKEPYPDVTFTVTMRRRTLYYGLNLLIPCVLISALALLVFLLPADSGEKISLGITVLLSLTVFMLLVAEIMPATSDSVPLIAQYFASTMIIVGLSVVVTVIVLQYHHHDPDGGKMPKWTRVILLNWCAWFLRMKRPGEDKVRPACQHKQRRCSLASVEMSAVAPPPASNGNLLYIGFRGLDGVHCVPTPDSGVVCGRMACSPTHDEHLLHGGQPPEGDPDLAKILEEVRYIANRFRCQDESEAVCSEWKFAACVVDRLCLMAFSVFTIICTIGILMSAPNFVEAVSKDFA
T1 sequence (P36544 23-502): as above

Regarding `Cc1cc(-c2sc(N3C[C@@H](C)O[C@@H](C)C3)nc2CNC(=O)c2ncsc2C)cc(C)n1` [Compound 178, N-[[2-[(2R,6S)-2,6-dimethyl-4-morpholinyl]-5-(2,6-dimethyl-4-pyridinyl)-4-thiazolyl]methyl]-5-methyl-4-thiazolecarboxamide], the melting point came to 180 °C. Moreover, the “PAM_Type PAM type” value in series [1] amounted to 0. Further, the Emax on human alpha 7-wt nAChR (setting [2]) was 733%. Also, the EC50 on human alpha 7-wt nAChR is 501 nM.
In the same order, the values of `Cc1ccc(-c2sc(N3C[C@@H](C)O[C@@H](C)C3)nc2CNC(=O)c2cc(C)on2)cn1` [Compound 118, N-[[2-[(2R,6S)-2,6-dimethyl-4-morpholinyl]-5-(6-methyl-3-pyridinyl)-4-thiazolyl]methyl]-5-methyl-3-isoxazolecarboxamide] are 148 °C, 0, 430% and 1860 nM.
On to `Cc1cc(-c2sc(N3C[C@@H](C)O[C@@H](C)C3)nc2CNC(=O)c2ccccc2Cl)ccn1` [Compound 90, 2-chloro-N-[[2-[(2R,6S)-2,6-dimethyl-4-morpholinyl]-5-(2-methyl-4-pyridinyl)-4-thiazolyl]methyl]-benzamide], for which the melting point worked out at 155 °C. Moreover, the “PAM_Type PAM type” value in series [1] amounted to 2. For the same compound, the Emax on human alpha 7-wt nAChR (setting [2]) came to 491%. Further, at human alpha 7-wt nAChR, the EC50 was 490 nM.
The compound `Cc1nocc1C(=O)NCc1nc(N2C[C@@H](C)O[C@@H](C)C2)sc1-c1ccnc(C(F)(F)F)c1` [Compound 197, N-[[2-[(2R,6S)-2,6-dimethyl-4-morpholinyl]-5-[2-(trifluoromethyl)-4-pyridinyl]-4-thiazolyl]methyl]-3-methyl-4-isoxazolecarboxamide] gave a melting point of 205 °C. Besides, the “PAM_Type PAM type” value in series [1] amounted to 1. Besides, the EC50 at human alpha 7-wt nAChR was 363 nM.
On to `Cc1cc(-c2sc(N3CCO[C@H](C(F)(F)F)C3)nc2CNC(=O)CC2CC2)cc(C)n1` [Compound 192, N-[[5-(2,6-dimethyl-4-pyridinyl)-2-[(2S)-2-(trifluoromethyl)-4-morpholinyl]-4-thiazolyl]methyl]-cyclopropaneacetamide], for which the melting point was 183 °C. Further, in series [1], the “PAM_Type PAM type” value was determined as 2. Also, the Emax at human alpha 7-wt nAChR (setting [2]) was 670%. Further, the EC50 on human alpha 7-wt nAChR is 234 nM.
For `Cc1cc(-c2sc(N3CCO[C@@H](C(F)(F)F)C3)nc2CNC(=O)CC2CC2)cc(C)n1` [Compound 191, N-[[5-(2,6-dimethyl-4-pyridinyl)-2-[(2R)-2-(trifluoromethyl)-4-morpholinyl]-4-thiazolyl]methyl]-cyclopropaneacetamide], in that order: 182 °C, 2, 995% and 74.1 nM.
For `Cc1cc(-c2sc(N3C[C@@H](C)O[C@@H](C)C3)nc2CNC(=O)CC2CC2)ccn1` [Compound 88, N-[[2-[(2R,6S)-2,6-dimethyl-4-morpholinyl]-5-(2-methyl-4-pyridinyl)-4-thiazolyl]methyl]-cyclopropaneacetamide], in that order: 177 °C, 2, 736% and 562 nM.
As for `Cc1cc(-c2sc(N3C[C@@H](C)O[C@@H](C)C3)nc2CNC(=O)C2CC2)cc(C)n1` [Compound 48, N-[[2-[(2R,6S)-2,6-dimethyl-4-morpholinyl]-5-(2,6-dimethyl-4-pyridinyl)-4-thiazolyl]methyl]-cyclopropanecarboxamide], the “PAM_Type PAM type” value in series [1] stood at 2. Also, the EC50 at human alpha 7-wt nAChR is 661 nM.
Regarding `Cc1cc(-c2sc(N3CC(C)OC(C(F)(F)F)C3)nc2CNC(=O)CC2CC2)cc(C)n1` (racemic) [Compound 202, N-[[5-(2,6-dimethyl-4-pyridinyl)-2-[2-methyl-6-(trifluoromethyl)-4-morpholinyl]-4-thiazolyl]methyl]-cyclopropaneacetamide], the “PAM_Type PAM type” value in series [1] turned out to be 2. Also, at human alpha 7-wt nAChR (setting [2]), the “a7-PAM-G_[33]_Eff_Curve_FI % Efficacy” value was found to be 735%. The EC50 on human alpha 7-wt nAChR was 21.4 nM.
With `Cc1cc(-c2sc(N3C[C@@H](C)O[C@@H](C)C3)nc2CNC(=O)c2cc(F)cc(F)c2)cc(C)n1` [Compound 15, N-[[2-[(2R,6S)-2,6-dimethyl-4-morpholinyl]-5-(2,6-dimethyl-4-pyridinyl)-4-thiazolyl]methyl]-3,5-difluoro-benzamide], the “PAM_Type PAM type” value in series [1] is on record as 2. The Emax on human alpha 7-wt nAChR (setting [2]) is 411%. Further, the EC50 on human alpha 7-wt nAChR is 170 nM.
In the same order, the values of `Cc1cc(-c2sc(N3CCOC(C)C3)nc2CNC(=O)c2conc2C)cc(C)n1` (single isomer, unassigned) [Compound 69, N-[[5-(2,6-dimethyl-4-pyridinyl)-2-[(2S*)-2-methyl-4-morpholinyl]-4-thiazolyl]methyl]-3-methyl-4-isoxazolecarboxamide] are 2, 645% and 955 nM.
In the same order, the values of `Cc1cc(-c2sc(N3C[C@@H](C)O[C@@H](C)C3)nc2CNC(=O)C2CC(=O)OC2(C)C)cc(C)n1` (stereo partly drawn) [Compound 154, N-[[2-[(2R,6S)-2,6-dimethyl-4-morpholinyl]-5-(2,6-dimethyl-4-pyridinyl)-4-thiazolyl]methyl]tetrahydro-2,2-dimethyl-5-oxo-3-furancarboxamide] are 1, 791% and 871 nM.
Consider `Cc1cc(-c2sc(N3C[C@@H](C)O[C@@H](C)C3)nc2CNC(=O)C2CCC2)ccn1` [Compound 89, N-[[2-[(2R,6S)-2,6-dimethyl-4-morpholinyl]-5-(2-methyl-4-pyridinyl)-4-thiazolyl]methyl]-cyclobutanecarboxamide], for which the “PAM_Type PAM type” value in series [1] stood at 2. The Emax on human alpha 7-wt nAChR (setting [2]) is 528%. The EC50 on human alpha 7-wt nAChR is 631 nM.
Turning to `Cc1cc(-c2sc(N3C[C@@H](C)O[C@@H](C)C3)nc2CNC(=O)c2ccc(F)c(F)c2F)cc(C)n1` [Compound 14, N-[[2-[(2R,6S)-2,6-dimethyl-4-morpholinyl]-5-(2,6-dimethyl-4-pyridinyl)-4-thiazolyl]methyl]-2,3,4-trifluoro-benzamide], the “PAM_Type PAM type” value in series [1] was found to be 2. Also, the Emax at human alpha 7-wt nAChR (setting [2]) was 787%. Also, the EC50 on human alpha 7-wt nAChR is 339 nM.
Regarding `Cc1cc(-c2sc(N3C[C@@H](C)O[C@@H](C)C3)nc2CNC(=O)c2cccc(F)c2F)cc(C)n1` [Compound 32, N-[[2-[(2R,6S)-2,6-dimethyl-4-morpholinyl]-5-(2,6-dimethyl-4-pyridinyl)-4-thiazolyl]methyl]-2,3-difluoro-benzamide], the “PAM_Type PAM type” value in series [1] worked out at 1. Further, at human alpha 7-wt nAChR (setting [2]), the Emax turned out to be 422%. Further, on human alpha 7-wt nAChR, the EC50 was 380 nM.
In the same order, the values of `Cc1cc(-c2sc(N3C[C@@H](C)O[C@@H](C)C3)nc2CNC(=O)c2cccc(F)c2)cc(C)n1` [Compound 7, N-[[2-[(2R,6S)-2,6-dimethyl-4-morpholinyl]-5-(2,6-dimethyl-4-pyridinyl)-4-thiazolyl]methyl]-3-fluoro-benzamide] are 2, 723% and 316 nM.

A word on the melting point: it is the temperature, or range, at which the solid turns liquid.
